Measurements from patent US20050245498A1, “Sterically-awkward beta-lactamase inhibitors” (priority 2002, published 2005).
pIC50: −log10 of the molar value. ≈ marks a conversion by molar mass, not a printed value. Read-outs that look alike come from different tables or passages of the source.

How the values were obtained:
AmpC β-lactamase [1] = target: T1, AmpC β-lactamase (Escherichia coli, UniProt P00811); conditions: hydrolysis by AmpC, 1.75 nM enzyme, 50 mM Tris pH 7
Experimental: Escherichia coli. AmpC β-lactamase was expressed and purified to homogeneity as previously described. The AmpC-catalyzed hydrolysis of the various β-lactams was monitored in an HP8453 UV/visible spectrophotometer. […] The reaction buffer used during the assays was 50 mM tris hydroxymethyl aminomethane hydrochloride (Fisher, Fair Lawn N.J.) at pH 7 in doubly-deionized water. kcat and KM values were determined at an enzyme concentration of 1.75 nM, with enzyme concentration determined, from more concentrated stocks, based on an ε280 of 0.098 μM^−1 cm^−1. […] Except for compounds synthesized for this study (ATMO-penicillin, ATMO-loracarbef), all compounds were used as supplied from the manufacturers without further purification.
Enzymology. The AmpC-catalyzed hydrolysis of the β-lactams cefotaxime, ATMO-penicillin, and ATMO-loracarbef (FIG. 1B) were monitored by UV-vis spectroscopy (Table 1).

AmpC β-lactamase [2] = target: T1, AmpC β-lactamase; test: biochemical; parameters: made in house; conditions: for IC50 compared to cefotaxime (fold lower): relative to cefotaxime IC50
[3] = test system: E. coli expressing AmpC β-lactamase; test: microbe, parasite or virus in culture; assay type: cell-based; conditions: for Minimum inhibitory concentration (MIC): E. coli expressing AmpC β-lactamase, Luria Broth, about 5×10^5 CFU/mL
Experimental: (§1) Microbiology. Serial dilution assays in ligand culture were performed to examine the efficacy of these awkward β-lactams against clinically relevant pathogens grown in liquid culture (Table 3). The compounds were dissolved in KPi or tris hydroxymethyl aminomethane hydrochloride to a concentration of 20-50 mM, and serial dilutions were performed into Luria Broth (Difco, Detroit Mich.). Each broth solution was then inoculated with bacterial cells from an overnight culture that had been diluted to give an inoculum concentration of approximately 5×10^5 CFU/mL.

[4] = test system: E. coli not expressing AmpC β-lactamase; test: microbe, parasite or virus in culture; assay type: cell-based; conditions: for Minimum inhibitory concentration (MIC): E. coli not expressing AmpC β-lactamase, Luria Broth, about 5×10^5 CFU/mL
Experimental: as §1

[5] = test system: CC(=O)OCC1=C(C(=O)O)N2C(=O)[C@@H](NC(=O)Cc3cccs3)[C@H]2SC1; test: purified protein, by the assay type; conditions: other: hydrolysis by AmpC, 1.75 nM enzyme, 50 mM Tris pH 7
[6] = test system: CO/N=C(\C(=O)N[C@@H]1C(=O)N2[C@@H]1SC(C)(C)[C@@H]2C(=O)O)c1csc(N)n1; test: purified protein, by the assay type; conditions: other: hydrolysis by AmpC, 1.75 nM enzyme, 50 mM Tris pH 7
[7] = test system: CO/N=C(\C(=O)N[C@@H]1C(=O)N2C(C(=O)O)=C(COC(C)=O)CS[C@H]12)c1csc(N)n1; test: purified protein, by the assay type; conditions: other: hydrolysis by AmpC, 1.75 nM enzyme, 50 mM Tris pH 7
[8] = Escherichia coli, read-out: Minimum inhibitory concentration (MIC)

T1 sequence (P00811 20-377): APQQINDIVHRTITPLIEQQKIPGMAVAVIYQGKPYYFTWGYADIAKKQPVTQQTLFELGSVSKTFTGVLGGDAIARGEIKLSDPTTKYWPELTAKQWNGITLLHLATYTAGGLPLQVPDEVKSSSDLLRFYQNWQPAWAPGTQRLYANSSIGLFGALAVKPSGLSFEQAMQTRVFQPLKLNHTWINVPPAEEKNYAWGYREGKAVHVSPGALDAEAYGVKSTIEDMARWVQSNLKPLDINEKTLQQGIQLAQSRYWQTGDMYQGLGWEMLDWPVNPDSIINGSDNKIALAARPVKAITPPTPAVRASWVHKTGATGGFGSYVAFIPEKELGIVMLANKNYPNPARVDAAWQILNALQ

CC1(C)S[C@@H]2[C@H](NC(=O)Cc3ccccc3)C(=O)N2[C@H]1C(=O)O [Penicillin G, penicillin G]
Kcat (AmpC β-lactamase [1]): 133.1 s⁻¹
Km (AmpC β-lactamase [1]): 5.05 µM
Kcat (AmpC β-lactamase [1]; listed as penicillin G): 133 s⁻¹

CO/N=C(\C(=O)N[C@@H]1C(=O)N2C(C(=O)O)=C(COC(C)=O)CS[C@H]12)c1csc(N)n1 [Cefotaxime, cefotaxime]
pIC50 (AmpC β-lactamase [2]): 6.10
Minimum inhibitory concentration (MIC) [3]: 1/32
Minimum inhibitory concentration (MIC) [4]: 1/128

CC(=O)OCC1=C(C(=O)O)N2C(=O)[C@@H](NC(=O)Cc3cccs3)[C@H]2SC1 [Cephalothin, cephalothin]
MIC [3, 8]: 64 µg/mL (≈ 161 µM)
MIC [4, 8]: 8 µg/mL (≈ 20.2 µM)
Kcat (AmpC β-lactamase [1]): 263 s⁻¹

AmpC β-lactamase (Escherichia coli K-12)
Km [5]: 31.3 µM
kcat [5]: 262 s⁻¹
kcat [6]: < 0.0045 s⁻¹
kcat [7]: 0.0448 s⁻¹

N[C@@H](C(=O)N[C@@H]1C(=O)N2C(C(=O)O)=C(Cl)CC[C@H]12)c1ccccc1 [Loracarbef, loracarbef]
Minimum inhibitory concentration (MIC) [3]: 8 µg/mL (≈ 22.9 µM)
Minimum inhibitory concentration (MIC) [4]: 4 µg/mL (≈ 11.4 µM)
Kcat (AmpC β-lactamase [1]): 118.3 s⁻¹
Km (AmpC β-lactamase [1]): 23.7 µM
Kcat (AmpC β-lactamase [1]; listed as loracarbef): 118 s⁻¹

CO/N=C(\C(=O)N[C@@H]1C(=O)N2[C@@H]1SC(C)(C)[C@@H]2C(=O)O)c1csc(N)n1 [ATMO-penicillin]
pIC50 (AmpC β-lactamase [2]): 6.05
IC50 compared to cefotaxime (fold lower) (AmpC β-lactamase [2]): comparable to cefotaxime
Kcat (AmpC β-lactamase [1]): < 0.0045 s⁻¹

CON=C(C(=O)NC1C(=O)N2C(C(=O)O)=C(Cl)CCC12)c1csc(N)n1 (centres unmarked) [ATMO-loracarbef, 7-ATMO-3-chloro-carbacephem]
pIC50 (AmpC β-lactamase [2]; against 200 μM nitrocefin, read-out: IC50): 7.10
IC50 compared to cefotaxime (fold lower) (AmpC β-lactamase [2]): 11 fold
Minimum inhibitory concentration (MIC) [3]: 1 µg/mL (≈ 2.5 µM)
Minimum inhibitory concentration (MIC) [4]: ¼
Kcat (AmpC β-lactamase [1]): 0.0323 s⁻¹
